Results: patent US20250188123A1, “PROTEASE INHIBITORS” (Regents of the University of Minnesota, priority 2022, published 2025)
Like-named read-outs stand apart in the source and are kept apart here.

Legend:
[1] = biological target: T1, human caspase-3 (Homo sapiens, UniProt P42574); test: Fluorescent enzyme assay, Casp3 (AFC substrate AcDEVD-AFC); format: biochemical
T1 construct: made in house; host or cells: E. coli Rosetta 2 pLysS DE3
T1 sequence (P42574 29-277): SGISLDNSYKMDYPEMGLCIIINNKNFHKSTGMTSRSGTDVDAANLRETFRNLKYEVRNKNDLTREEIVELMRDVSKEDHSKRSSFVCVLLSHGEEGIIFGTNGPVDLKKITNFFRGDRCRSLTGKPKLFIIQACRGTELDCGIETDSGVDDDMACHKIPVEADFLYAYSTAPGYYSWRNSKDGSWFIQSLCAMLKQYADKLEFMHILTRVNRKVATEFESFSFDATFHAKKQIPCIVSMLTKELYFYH
Text: (§1) Human recombinant Casp1, 6, 7, and 9 were purchased from BioVision (Milpitas/CA, USA). AFC fluorogenic substrates and control peptides (AcYVAD-CHO, AcVDVAD-CHO, AcDEVD-CHO, AcVEID-CHO, and AcLEHD-CHO) were purchased from Bachem (Torrance/CA, USA). The pET23b vector encoding human caspase-3 was a gift of Dr. Michelle Arkin at University of California, San Francisco. Expression and purification of Casp3 was guided by previously described protocols (Denault J-B, Salvesen G S., Current Protocols in Protein Science, 2002, 30(1), 21.13. 1-21.13. 15). Briefly, the plasmid was transformed into E. coli Rosetta 2 pLyss DE3 cells that were cultured at 1 L scale in shake flasks. Five hours post induction with IPTG, cells were harvested through centrifugation (4000 g for 10 minutes at 4° C.), lysed by sonication, and centrifuged again for 30 minutes at 20000 g. Supernatant was resuspended in buffer (100 mM Tris pH 8.0, 500 mM NaCl). Purification was achieved by nickel-affinity chromatography followed by ion-exchange chromatography. Protein was diluted to 0.5 mg/mL and stored at −80° C. in 100 mM Tris, pH 8.0 supplemented with 10% glycerol. The typical yield for the expression, isolation, and purification was approximately 3 mg/L. The DNA encoding human caspase-2 (hCASP2, amino acids 170-452, free of the N-terminal caspase activation and recruitment domain) open reading frame (ORF) was amplified via polymerase chain reaction (PCR) from full-length hCASP2 cDNA (Origene, Rockville, MD; Cat #SC321316) using following primers: forward, 5′-[…]-3′; reverse, 5′-[…]-3′. The PCR fragment was then cloned into the pET23b vector (Millipore Sigma, Burlington, MA), and DNA sequence was verified by classic Sanger sequencing analyses. Site-directed mutageneses were carried out using a QuikChange II XL site-directed mutagenesis kit (Agilent Technologies, Santa Clara, CA; Cat #200522) according to the manufacturer's instruction. Expression of recombinant hCASP2 was induced using 150 μM isopropyl-β-D-thiogalactopyranoside (IPTG) (Promega, Madison, WI) in the BL21(DE3) E. coli strain (Millipore Sigma) at 16° C. for 14 hours while shaking at 250 rpm. Cells were then harvested via centrifugation at 6,000 g, 4° C. for 15 minutes, followed by lysis via sonication. Proteins were initially purified using HisPur Ni-NTA resin (Thermo Fisher Scientific, Waltham, MA) followed by metal chelating chromatography (5 mL HiTrap Chelating HP columns (GE Healthcare Life Sciences, Piscataway, NJ)). Further purification was carried out using anion exchange chromatography (5 mL HiTrap Q HP columns (GE Healthcare Life Sciences)) for hCASP2. Proteins were stored in 1× phosphate-buffered saline (pH 7.4) at 10 mg/mL (concentration determined using a BCA assay (Thermo Fisher Scientific)), −80° C. until further use.
(§2) KM values were determined experimentally to be the following: Casp1: 5.9 μM; Casp2: 37.1 μM; Casp3: 7.6 μM; Casp6: 14.5 μM; Casp7: 13.8 μM; Casp9: 149.1 μM. Enzymes were diluted in buffer: 100 mM MES (pH 6.5) for Casp2 and or 100 mM HEPES (pH 7.0) for all other caspases, plus 150 mM NaCl, 0.1% CHAPS, 1.5% sucrose, 10 mM DTT. Enzyme concentrations were 0.05 U/well for Casp1, 6, and 7; 0.5 U/well for Casp9, 20 nM/well for Casp2, and 2 nM/well for Casp3. Enzyme in buffer (19 μL) was added per well in a black 384-well Corning 4514 assay plate. Test compounds were serially diluted in dimethyl sulfoxide (DMSO) and plated in duplicate into a Corning 3656 transfer plate. Test compound was added to assay plates in 0.5 μL aliquots per well and mixed 10 times using a BiomekFX (Beckman Coulter). Compound and enzyme mixture was incubated at 37° C. for 5 minutes for aldehyde warheads and 45 minutes for cyano warheads. […]

[2] = biological target: T2, human caspase-2 (Homo sapiens, UniProt P42575); test: Fluorescent enzyme assay, Casp2 (AFC substrate Z-VDVAD-AFC); format: biochemical; settings: for Ki (Casp3) / Ki (Casp2): selectivity Casp2 over Casp3
T2 construct: inferred from pET23b, XhoI reverse primer without stop codon, Ni-NTA purification) (C); made in house; host or cells: E. coli BL21(DE3)
T2 sequence (P42575 170-452): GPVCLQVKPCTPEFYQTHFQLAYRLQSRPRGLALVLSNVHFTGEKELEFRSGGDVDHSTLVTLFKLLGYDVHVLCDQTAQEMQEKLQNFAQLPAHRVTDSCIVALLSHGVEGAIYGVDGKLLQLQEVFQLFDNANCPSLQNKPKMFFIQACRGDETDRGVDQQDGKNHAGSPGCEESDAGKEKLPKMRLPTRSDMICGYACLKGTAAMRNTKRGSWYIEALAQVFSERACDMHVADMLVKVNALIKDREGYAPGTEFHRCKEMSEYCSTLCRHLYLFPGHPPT
Text: as §1, §2

[3] = mean ± SEM of N independent experiments, each in duplicate or triplicate

Compound | Ki ([1]; mean ± SEM of N independent experiments, each in duplicate or triplicate, read-out: pKi ± SEM Casp 3 (converted)) [µM] | Ki ([2]; mean ± SEM of N independent experiments, each in duplicate or triplicate, read-out: pKi ± SEM Casp 2 (converted)) [µM] | Ki (Casp3) / Ki (Casp2) [2] | Ki [1] [µM] | Ki [2] [µM] | selective versus Casp3 ([2]; Casp2 over Casp3) [fold] | pKi ± SEM Casp 3 [1, 3] | pKi ± SEM Casp 2 [2, 3]
CC(=O)N[C@H](C(=O)NC(CC(=O)O)C(=O)N[C@H](C(=O)N1CCc2cc(C)ccc2C1C(=O)N[C@H](C=O)CC(=O)O)C(C)C)C(C)C (stereo in doubt) [Compound 30a, (R)-3-((S)-2-acetamido-3-methylbutanamido)-4-(((S)-1-((S)-1-(((S)-1-carboxy-3-oxopropan-2-yl)carbamoyl)-6-methyl-3,4-dihydroisoquinolin-2(1H)-yl)-3-methyl-1-oxobutan-2-yl)amino)-4-oxobutanoic acid, reference compound] | > 100 | 10.5 | >9 |  |  |  |  | 
Cc1ccc2c(c1)CCN(C(=O)[C@@H](NC(=O)[C@H](CCCC(=O)O)NC(=O)C1Cc3ccccc3N1)C(C)C)[C@@H]2C(=O)N[C@H](C#N)CC(=O)O (stereo partly drawn) [Compound 1, (8)-6-(((S)-1-((8)-1-(((S)-2-carboxy-1-cyanoethyl)carbamoyl)-6-methyl-3,4-dihydroisoquinolin-2(1H)-yl)-3-methyl-1-oxobutan-2-yl)amino)-5-((S)-indoline-2-carboxamido)-6-oxohexanoic acid] |  |  | 123 | 0.933 | 0.00759 | 123 |  | 
CC(=O)N[C@H](C(=O)N[C@@H](CC(=O)O)C(=O)N[C@H](C(=O)N1CCc2cc(C)ccc2[C@H]1C(=O)N[C@H](C=O)CC(=O)O)C(C)C)C(C)C [Compound 30b, (S)-3-((S)-2-acetamido-3-methylbutanamido)-4-(((S)-1-((S)-1-(((S)-1-carboxy-3-oxopropan-2-yl)carbamoyl)-6-methyl-3,4-dihydroisoquinolin-2(1H)-yl)-3-methyl-1-oxobutan-2-yl)amino)-4-oxobutanoic acid, reference compound] |  |  | 70 |  |  |  | 6.04 ± 0.06 | 7.89 ± 0.02
